Test results reported in patent US20060088545A1, “Use of inhibitors of the protease of the human immunodeficiency virus (hiv) to block cell migration and/or invasion, tissue infiltration and oedema for the therary of diseases associated therewith” (priority 2001, published 2006).

Tests used:
[1] = test system: primary macrovascular (umbilical vein) endothelial cells (HUVEC); assay: Boyden chamber migration assay of HUVEC in response to bFGF; assay type: cell-based, human; details: 0.1, 1 or 10 μM; bFGF 50 ng/ml; 5 hours
Protocol: (§1) Both assays were performed on endothelial cells.
(§2) Both assays were performed by the Boyden chamber separated in two compartments by polycarbonate filters with 12 μm pores (Nucleoprobe, Cabin John, Md.), coated with collagen IV (Collaborative Biomedical Products) for migration, or with collagen IV and Matrigel together for invasion, as described previously (Barillari et al., 1999b). […] After 5 hours (migration) or 6 hours (Invasion) of incubation, the non-migrated cells present on the top surface of the filters were mechanically removed, while the migrated cells on the bottom surface were fixed in methanol and stained with toluidine blue (Sigma Chemical Co., St. Louis, Mo.). The cells present in 5-10 microscopic fields of the filters, chosen at random, were counted as described previously (Barillari et al., 1999b).
(§3) The concentrations of HIV-PI used were the same as those present in plasma of treated patients (Deeks et al., 1997).

[2] = test system: primary macrovascular (umbilical vein) endothelial cells (HUVEC); assay: Boyden chamber invasion assay of HUVEC in response to bFGF; assay type: cell-based, human; details: 0.1, 1 or 10 μM; bFGF 50 ng/ml; 6 hours
Protocol: as §1, §2, §3

smooth muscle cells = assay: Cell growth assay of smooth muscle cells in response to bFGF; assay type: cell-based, human
From the text: Assays have been essentially performed as described in key to FIGS. 1 and 3. […] Data of duplicate experiments (mean) are shown.

KS cells = assay: KS cell invasion of matrigel, Boyden chamber, bFGF chemo-attractant; assay type: cell-based, human; details: KS3, KS8, KS12 strains; dose-dependent
Protocol: Both drugs inhibited the capacity of the KS cells to invade the Matrigel membrane in a dose-dependent manner. In particular, both the HIV-PI inhibited invasion as compared to the levels observed in control KS cells (p<0.05).
The assay was performed as described in FIG. 3. […] The cells were harvested and then plated in duplicate (5×10^5 in a culture medium containing 0.05% BSA) in the upper compartment of the Boyden chamber, always in the presence of HIV-PI or buffer. bFGF (20 ng/ml) was placed in the bottom compartment as a chemo-attractant.
After 6 hours the cells that invaded the matrigel membrane were stained and counted as described in the key to FIG. 3.
In contrast, both drugs inhibited KS cell capability of invading a matrigel substrate in a dose-dependent manner. In particular, both HIV-PI inhibit the invasion of KS cells by 30-40% (p<0.05) (Table 4 and FIG. 13).
Migration and invasion assays were carried out essentially as detailed in the key to FIGS. 2 and 3.

[3] = test system: lung carcinoma cells (A549); assay: Cell growth assay of A549 cells; assay type: cell-based, human; details: 10 μM; 4 days
Protocol: Shown is the result of a representative cell growth assay performed on the lung carcinoma cells. Human lung carcinoma cells (A549; ATCC) were plated in triplicate (8×10^4 cells/well) in 12-well plates. […] Ensoli et al., 1994b): For all the in vitro studies HIV-PI as endotoxin-free pure powder (a kind gift of Merck Sharp & Dohme and Roche) were resuspended in distilled water. Assays were repeated at least three times.

[4] = test system: breast carcinoma (MDA-MB468) cells; assay: Invasion assay of MDA-MB468 cells in response to bFGF; assay type: cell-based, human; details: 0.1, 1 or 10 μM
Protocol: Shown is the result of a representative invasion assay performed on the breast carcinoma cells MDA-MB468. […] The invasion assays were performed in the Boyden chamber. Polycarbonate filters ([…]; Nucleoprobe, Cabin John, Md.) were coated first with collagen IV and then with Matrigel (Collaborative Biomedical Products) as described previously (Barillari et al., 1999b). […] Human recombinant bFGF (50 ng/ml) was placed in the lower compartment as chemoattractant. […] Louis, Mo.). Ten random filter fields were counted by light microscopy as described previously (Barillari et al., 1999b). Assays were repeated two times.

[5] = test system: angioproliferative KS-like lesions induced by KS cells; assay: KS-like lesions induced by inoculation of KS cells in nude mice (drug pre-treatment); assay type: in vivo; details: KS cells 3×10^6; treatment starting 2 days before cell inoculation
From the text: At the time of sacrifice, the sites of inoculation were examined to check for the presence of macroscopic angioproliferative lesions as described in the key to FIG. 12 and Table 5.
These angioproliferative lesions are transient, of murine origin and are developed in response to cytokines, such as bFGF and VEGF, IL-1, IL-6 and others, released by the KS cells (Ensoli et al., 1989; Ensoli et al., 1994a; Ensoli et al., 1994b; Fiorelli et al., 1995; Samaniego et al., 1995; Samaniego et al., 1997; Sgadari et al., 2000). In fact, at least in initial phase, KS is a reactive angioproliferative diseases and not a true neoplasm (Ensoli and Sturzl, 1998).
At the time of sacrifice, the sites of inoculation were examined to check for the presence of macroscopic angioproliferative KS-like lesions as described in the key to Table 1. Here are listed the number (No.) of mice that developed lesions with respect to the number (No.) of mice inoculated, and the percentage (%) of mice that developed lesions.

[6] = test system: myelo-monocytic leukaemia (U937) cells; assay: Tumour lesions induced by U937 cells in nude mice; assay type: in vivo; details: 5×10^6 cells/site; daily treatment
Protocol: (§4) The treatment with HIV-PI or saline solution continued until sacrifice. The size of the lesions present at the injection site was evaluated daily by caliper measurement. External lesion area was then calculated as the product of the two major lesion diameters. The mean size (cm^2) of the lesions present at the injection site is shown.
(§5) To determine whether HIV-PI could inhibit the growth of malignant solid and lymphoid tumours, nude mice were inoculated with hepato-carcinoma cells (SK-Hep-1), lung carcinoma cells (A549), breast adeno-carcinoma cells (MDA-MB-468), myelo-monocytic leukaemia cells (U937), and T lymhocytic leukaemia cells (Jurkat).

[7] = test system: T cell leukaemia (Jurkat) cells; assay: Tumour lesions induced by Jurkat cells in nude mice; assay type: in vivo; details: 20×10^6 cells/site; daily treatment
Protocol: as §4, §5

SMILES	migration induced by bFGF [1]	invasion induced by bFGF [2]	proliferation in response to bFGF (smooth muscle cells)	invasive capacity of KS cells (KS cells)	proliferation [3]	invasive capacity in response to bFGF [4]	No. of mice with macroscopic lesions/No. of inoculated mice [5]	mice with macroscopic lesions (%) [5]	development of tumour lesions (lesion size) [6]	development of tumour lesions (lesion size) [7]
CC(C)(C)NC(=O)[C@@H]1CN(Cc2cccnc2)CCN1C[C@@H](O)C[C@@H](Cc1ccccc1)C(=O)N[C@H]1c2ccccc2C[C@H]1O [Indinavir, indinavir]	block	block	do not interfere	inhibit	do not interfere	inhibit	7/16	43%	inhibit	inhibit
CC(C)(C)NC(=O)[C@@H]1C[C@@H]2CCCC[C@@H]2CN1C[C@@H](O)[C@H](Cc1ccccc1)NC(=O)[C@H](CC(N)=O)NC(=O)c1ccc2ccccc2n1 [Saquinavir, saquinavir]	block	block	do not interfere	inhibit	do not interfere	inhibit	4/16	25%	inhibit	inhibit
